# According to patent publication US6818670B2, “Active ingredient combination having insecticidal and acaricidal characteristics” (priority 1999, dated 2004):
# Assays:
# Assay type in all cases: in vivo
# [1] = system: fall army worm caterpillars (Spodoptera exigua); assay: Spodoptera exigua test (cabbage leaves, immersion); conditions: single active compound, 8 ppm
# Method: (§1) To produce a suitable preparation of active compound, 1 part by weight of active compound is mixed with the stated amounts of solvent and emulsifier, and the concentrate is diluted with emulsifier-containing water to the desired concentration.
# Cabbage leaves (Brassica oleracea) are treated by immersion in the active compound preparation of the desired concentration and are populated with fall army worm caterpillars (Spodoptera exigua) while the leaves are still moist.
# (§2) After the desired period, the destruction is determined in %. 100% means that all caterpillars have been killed; 0% means that none of the caterpillars have been killed. The kill figures determined are calculated using Colby's formula.
# [2] = system: green rice leaf-hoppers (Nephotettix cincticeps); assay: Nephotettix test (rice seedlings, immersion); conditions: single active compound, 0.32 ppm
# Method: as §1
# Rice seedlings (Oryza sativa) are treated by immersion in the active compound preparation of the desired concentration and are populated with green rice leaf-hoppers (Nephotettix cincticeps) while the leaves are still moist.
# After the desired period, the destruction is determined in %. 100% means that all leafhoppers have been killed; 0% means that none of the leafhoppers have been killed. The kill figures determined form the basis for calculations with Colby's formula.
# [3] = system: diamond-back moth caterpillars (Plutella xylostella); assay: Plutella test (cabbage leaves, immersion); conditions: single active compound, 1.6 ppm
# Method: (§3) To produce a suitable active compound preparation, 1 part by weight of active compound is mixed with the stated amounts of solvent and emulsifier, and the concentrate is diluted with emulsifier-containing water to the desired concentration.
# Cabbage leaves (Brassica oleracea) are treated by immersion in the active compound preparation of the desired concentration and are populated with diamond-back moth caterpillars (Plutella xylostella) while the leaves are still moist.
# as §2
# [4] = system: Heliothis virescens caterpillars; assay: Heliothis virescens test (soya bean shoots, immersion); conditions: single active compound, 0.32 ppm
# Method: as §3
# Soya bean shoots (Glycine max) are treated by immersion in the active compound preparation of the desired concentration and are populated with Heliothis virescens caterpillars while the leaves are still moist.
# as §2
# [5] = system: common spider mite (Tetranychus urticae); assay: Tetranychus test (OP-resistant/spray treatment, bean plants); conditions: single active compound, 0.32 ppm, OP-resistant, spray treatment
# Method: OP-resistant/spray Treatment
# as §3
# Bean plants (Phaseolus vulgaris) which are severely infested with all stages of the common spider mite (Tetranychus urticae) are sprayed with an active compound preparation of the desired concentration.
# After the desired period, the action is determined in %. 100% means that all spider mites have been killed; 0% means that none of the spider mites have been killed. The kill figures determined are calculated using Colby's formula.
Structure (SMILES),Percentage destruction after 6 days [1] [%],Percentage destruction after 6 days [2] [%],Percentage destruction after 3 days [3] [%],Percentage destruction after 3 days [4] [%],Percentage destruction after 14 days [5] [%]
"CC1(C)C(C=C(Cl)Cl)C1C(=O)OC(C#N)c1ccc(F)c(Oc2ccccc2)c1 (stereo not shown) [Betacyfluthrin, betacyfluthrin]",90,50,80,75,
"COP(N)(=O)SC (stereo not shown) [Methamidophos, methamidophos]",,,,,0
CCC(C)(C)C(=O)OC1=C(c2ccc(Cl)cc2Cl)C(=O)OC12CCCCC2 [Ex. (I-b-1)],0,0,0,0,0
